Our source for the inhibition and melting point values is patent US20100168093A1, “SUBSTITUTED 3-AMINO-4 -HYDROXY PYRROLIDINES COMPOUNDS, THEIR PREPARATION AND USE AS MEDICAMENTS” (priority 2006, published 2010).

Each structure is given as a SMILES string.

The target of data set [1] is T1, Sigma-1 receptor (Cavia porcellus, UniProt Q60492).
T1 construct: guinea pig brains were homogenized; from tissue; host or cells: guinea pig brain membranes
Description: Sigma-1 receptor binding assay, [3H](+)-pentazocine displacement in brain membranes. To be noted: 2.5 h, compound at 10^−7 M; [3H](+)-pentazocine 0.5 nM; guinea pig brain membranes; non-specific binding defined by 1 μM haloperidol; read-out: Percent Replacement Sigma-1 receptor [10^−7 M]. Here is the method: Some representative compounds of the invention were tested for their activity as sigma (sigma-1) inhibitors. The following protocol was followed:
Brain membrane preparation and binding assays for the σ1-receptor were performed as described (DeHaven-Hudkins et al., 1992, Eur. J. Pharmacol. 227, 371-378.) with some modifications. In brief, guinea pig brains were homogenized in 10 vols. (w/v) of Tris-HCl 50 mM 0.32 M sucrose, pH 7.4, with a Kinematica Polytron PT 3000 at 15000 r.p.m. for 30 s. The homogenate was centrifuged at 1000g for 10 min at 4° C. and the supematants collected and centrifuged again at 48000 g for 15 min at 4° C. The pellet was resuspended in 10 volumes of Tris-HCl buffer (50 mM, pH 7.4), incubated at 37° C. for 30 min, and centrifuged at 48000 g for 20 min at 4° C. Following this, the pellet was resuspended in fresh Tris-HCl buffer (50 mM, pH 7.4) and stored on ice until use.
Each assay tube contained 10 μL of [^3H](+)-pentazocine (final concentration of 0.5 nM), 900 μL of the tissue suspension to a final assay volume of 1 mL and a final tissue concentration of approximately 30 mg tissue net weight/mL. Non-specific binding was defined by addition of a final concentration of 1 μM haloperidol. All tubes were incubated at 37° C. for 150 min before termination of the reaction by rapid filtration over Schleicher & Schuell GF 3362 glass fibre filters [previously soaked in a solution of 0.5% polyethylenimine for at least 1 h]. Filters were then washed with four times with 4 mL of cold Tris-HCl buffer (50 mM, pH 7.4). Following addition of scintillation cocktail, the samples were allowed to equilibrate overnight. The amount of bound radioactivity was determined by liquid scintillation spectrometry using a Wallac Winspectral 1414 liquid scintillation counter. Protein concentrations were determined by the method of Lowry et al. (1951; J. Biol. Chem, 193, 265.).

T1 sequence (Q60492 whole entry): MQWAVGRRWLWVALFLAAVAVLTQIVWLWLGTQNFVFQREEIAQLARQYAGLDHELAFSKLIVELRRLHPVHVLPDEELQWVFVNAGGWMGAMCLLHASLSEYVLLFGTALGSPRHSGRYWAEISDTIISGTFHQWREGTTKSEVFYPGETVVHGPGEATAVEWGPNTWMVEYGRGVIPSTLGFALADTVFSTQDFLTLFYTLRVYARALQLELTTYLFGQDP

One may read the melting point as the temperature, or range, at which the solid turns liquid. On to `O[C@@H]1CN(Cc2ccccc2)C[C@H]1N1CCN(Cc2ccccc2)CC1` [Example 17, (3,4-trans)-1-benzyl-4-(4-benzylpiperazin-1-yl)pyrrolidine-3-ol], for which the melting point was 102 to 103 °C. The inhibition at 0.1 µM in data set [1] was 82.1%.
In turn, `O[C@@H]1CN(Cc2ccccc2)C[C@H]1N1CCN(c2ccccc2)CC1` [Example 18, (3,4-trans)-1-benzyl-4-(4-phenylpiperazin-1-yl)pyrrolidine-3-ol] displayed a melting point of 120 to 123 °C. Also, in data set [1], the inhibition at 0.1 µM worked out at 90.9%.
`O=C(c1ccccc1)N1CCN([C@@H]2CN(Cc3ccccc3)C[C@H]2O)CC1` [Example 20, (4-((3,4-trans)-1-benzyl-4-hydroxypyrrolidine-3-yl)piperazin-1-yl)(phenyl)methanone] gave a melting point of 130 to 134 °C.
